{"source": "patent US7423068B2", "about": "“Control of parasitic mites of honey bees” (The United States of America as represented by the …, priority 2001, dated 2008)", "key": {"free-running adult mites": {"tested_on": "free-running adult mites", "method": "2-Heptanone was tested for miticidal activity in two separate sets of bioassays. In the petri dish bioassays we exposed free-running adult mites to volatiles from 2-heptanone either in pure form or in an acrylic block dispenser (as described in a further experiment, below) and measured mortality over time. Mites were placed in petri dishes (5-10 mites/dish, 4 dishes per treatment and 4 dishes for controls) that were lined on the bottom with damp tissue paper covered with Parafilm®. Holes were punched in the Parafilm® using an insect pin to create a humid environment in the petri dish. A piece of filter paper the same size as the petri dish was placed on top of the Parafilm® sheet. In the first petri dish bioassay, 40 μl of pure 2-heptanone was placed on a piece of filter paper on the lid of the petri dish (treatment dishes). The Control dishes were set up as described above but nothing was added to the piece of filter paper fastened to the lid of the petri dish. The petri dishes were placed in separate incubators for treatments and Controls. Incubator temperatures were maintained at 33-34.4° C. […] In the second bioassay 0.1 g of a 30% concentration of 2-heptanone in acrylic block made as in Example 6 was placed in a plastic weighing boat in the center of petri dishes prepared as described above. Control petri dishes were prepared identically to those containing the acrylic block, but the weighing boat in the center of the dish was empty.\nIn another series of tests, 2-heptanone, 98+% (Sigrma-Aldrich); 3-heptanone (Fluka Chemika); 4-heptanone (Fluka Chemika); 2-hexanone; 2-octanone, 98% (Aldrich Chemical Co.); 1-heptanol (Fluka Chemika, 99.5% GC), and heptaldehyde, 95% (Aldrich Chemical Co.) were tested in petri dish bioassays wherein free-running adult mites were exposed to 40 μl of pure compound placed on filter paper as described above. The test conditions and Controls were as described above.\nThe test conditions and Controls were as described above."}, "Varroa mite": {"tested_on": "Varroa mite", "assay": "Miticidal activity in 5-frame honey bee colonies (sticky board counts)", "assay_type": "in vivo, Varroa jacobsoni", "method": "This set of bioassays was conducted in 5-frame colonies. We tested miticidal activity of 30% concentration 2-heptanone in an acrylic block dispenser. Four colonies were established for each of the following treatments: 2-heptanone, Apistan® (a commercially available miticide for control of Varroa), and no treatment (i.e., Controls). Before each treatment, counts were made of the number of mites that dropped on to Dewill® Varroa Mite Detector Inserts (hereinafter denoted as “sticky boards”) placed at the bottom of colonies for one week (pre-treatment counts). A new sticky board then was inserted at the bottom of each colony, and either a single acrylic block dispenser with 30% 2-heptanone made as in Example 6 (surface area=28.3 cm^2) or a single Apistan® strip was placed between the frames. The Controls comprised no treatment. The number of mites on the sticky boards was counted weekly for 3-4 weeks afterwards (treatment interval). New sticky boards were inserted at the beginning of each week. At the end of the test period, the 2-heptanone and Apistan® were removed, and a new sticky board was inserted on the bottom of the colonies. A new Apistan® strip then was placed in the colonies to kill any remaining mites (post-treatment interval). The number of mites on the sticky board was counted after the colony was exposed to the new Apistan® strip for one week. The % Reduction in the Varroa Population was estimated by summing all the mites counted on the sticky board during the 3 or 4 week treatment interval and dividing it by the total number of mites counted for the colony during both the treatment and post-treatment intervals.\nWhen we removed the acrylic strips from the colony after three weeks, we could still detect the odor of 2-heptanone. We repeated the test with new colonies, and in this trial (Trial-2) left the 2-heptanone and Apistan® strips in the colony for 4 weeks. We then placed the post-treatment Apistan® strips in the colonies.\nThis test (Trial 3) was carried out in 5-frame colonies as described above except for the following changes. […]"}}}
{"compound": "CCCCCC(C)=O", "note": "[2-Heptanone]", "values": [{"measurement": "% of the mites dead", "setting": "free-running adult mites; 0.1 g of 30% 2-heptanone in acrylic block, 4 hrs., controls 6%", "result": 90, "unit": "%"}, {"measurement": "time until all the mites were dead", "setting": "free-running adult mites; 40 μl pure 2-heptanone on filter paper, 33-34.4° C., controls 0% mortality", "result": "less than 2 hrs."}, {"measurement": "% Reduction in Varroa Mite Population ± S.E.", "setting": "Varroa mite; Trial 1, 3 week treatment, 30% 2-heptanone acrylic block or single Apistan strip, Control 42.2 ± 7.0", "result": "61.8 ± 8.5", "unit": "a %"}, {"measurement": "% Reduction in Varroa Mite Population ± S.E.", "setting": "Varroa mite; Trial 2, 4 week treatment, 30% 2-heptanone acrylic block or single Apistan strip, Control 43.6 ± 4.2", "result": "73.6 ± 13.7", "unit": "a %"}, {"measurement": "% Reduction in Varroa Mite Population ± S.E.", "setting": "Varroa mite; Trial 3, controlled release strip with 60 g 2-heptanone on top bar, renewed after 3 weeks, or Apistan strip, Control 69.35 ± 4.8", "result": "87.05 ± 4.4", "unit": "a %"}]}
